Assay results as given in patent US8450331B2, “Thiophenyl-substituted 2-imino-3-methyl pyrrolo pyrimidinone compounds as BACE-1 inhibitors, compositions, and their use” (Merck Sharp & Dohme Corp., priority 2008, dated 2013).
Where two headings read alike, the source gives them in different places.

Tests used:
CYP2C9 = target: T1, CYP2C9 (Homo sapiens, UniProt P11712); experiment: CYP inhibition assay, human liver microsomes, CYP2C9; assay type: in vitro ADME
T1 construct: human liver microsomes (0.4 mg/ml); from tissue; host or cells: human liver microsomes
T1 sequence (P11712 whole entry): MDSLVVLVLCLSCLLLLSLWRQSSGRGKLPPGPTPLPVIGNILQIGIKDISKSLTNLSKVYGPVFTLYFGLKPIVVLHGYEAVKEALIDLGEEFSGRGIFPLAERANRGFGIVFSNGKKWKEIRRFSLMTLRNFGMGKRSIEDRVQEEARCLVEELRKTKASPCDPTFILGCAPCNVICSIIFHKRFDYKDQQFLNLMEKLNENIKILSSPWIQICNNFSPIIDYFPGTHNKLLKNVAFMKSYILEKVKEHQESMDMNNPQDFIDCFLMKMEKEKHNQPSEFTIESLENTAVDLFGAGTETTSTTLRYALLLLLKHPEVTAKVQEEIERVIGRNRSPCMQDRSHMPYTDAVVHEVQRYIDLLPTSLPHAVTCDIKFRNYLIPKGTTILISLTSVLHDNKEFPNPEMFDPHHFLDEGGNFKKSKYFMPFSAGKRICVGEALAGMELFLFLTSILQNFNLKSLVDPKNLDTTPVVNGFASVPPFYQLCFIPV
Experimental: (§1) The test article was dissolved in methanol at a concentration of 5 mM. Dilutions of the stock solution were also prepared in methanol. The substrate concentration was kept near the Km value for each CYP reaction. The substrates were 100 μM phenacetin (O-deethylase reaction) for CYP1A2, 16 μM dextromethorphan (O-demethylase reaction) for CYP2D6, 100 μM testosterone (6β-hydroxylase reaction) and 5 μM midazolam (1′-hydroxylase reaction) for CYP3A4, 200 μM tolbutamide (4-hydroxylase reaction) for CYP2C9, 125 μM S-(+)-mephenyloin (4-hydroxylase reaction) for CYP2C19 and 5 μM paclitaxel (6[…]-hydroxylase reaction) for CYP2C8. The reactions were terminated by the addition of 35% perchloric acid to a final concentration of 4.5% (vol:vol). The concentrations of the metabolites formed from each substrate after incubation were determined by LC-MS/MS using a standard curve.
(§2) To evaluate metabolism/mechanism-based inhibition, the test article, at the stated concentrations (0 to 50 μM), was pre-incubated with human liver microsomes for 30 min at 37° C. in the presence of NADPH and in the absence of the substrates. After the pre-incubation step, the CYP substrates were added at the previously stated concentrations and the reactions were allowed to proceed as indicated in the previous paragraph.

CYP2D6 = target: T2, CYP2D6 (Homo sapiens, UniProt P10635); experiment: CYP inhibition assay, human liver microsomes, CYP2D6; assay type: in vitro ADME
T2 construct: human liver microsomes (0.4 mg/ml); from tissue; host or cells: human liver microsomes
T2 sequence (P10635 whole entry): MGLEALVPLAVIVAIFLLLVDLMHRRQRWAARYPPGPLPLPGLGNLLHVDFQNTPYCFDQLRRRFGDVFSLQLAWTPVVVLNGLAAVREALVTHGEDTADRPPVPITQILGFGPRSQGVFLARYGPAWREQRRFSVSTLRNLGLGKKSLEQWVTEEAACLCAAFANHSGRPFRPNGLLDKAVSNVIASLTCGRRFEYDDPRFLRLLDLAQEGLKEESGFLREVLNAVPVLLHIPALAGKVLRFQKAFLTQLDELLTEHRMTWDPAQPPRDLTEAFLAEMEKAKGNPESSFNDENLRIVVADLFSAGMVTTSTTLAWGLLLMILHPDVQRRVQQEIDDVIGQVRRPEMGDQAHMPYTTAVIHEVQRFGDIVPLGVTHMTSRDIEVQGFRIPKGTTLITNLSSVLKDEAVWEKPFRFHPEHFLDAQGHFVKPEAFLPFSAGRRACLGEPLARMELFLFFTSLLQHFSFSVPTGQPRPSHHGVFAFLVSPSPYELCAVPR
Experimental: as §1, §2

hERG = target: T3, hERG (Homo sapiens, UniProt Q12809); experiment: hERG rubidium efflux in hERG-CHO cells; assay type: cell-based; conditions: CHO cells that express hERG (hERG-CHO); for inhibition at 30 min, 1.5 uG/mL: pH 7.4, 1.5 uG/mL, read-out: HERG Rb efflux % Inhib 1.5 uG/mL; for inhibition at 30 min, 5 uG/mL: pH 7.4, 5 uG/mL, read-out: HERG Rb efflux % Inhib 5 uG/mL
T3 construct: expressed in transfected cells; host or cells: CHO cells (hERG-CHO)
T3 sequence (Q12809 whole entry): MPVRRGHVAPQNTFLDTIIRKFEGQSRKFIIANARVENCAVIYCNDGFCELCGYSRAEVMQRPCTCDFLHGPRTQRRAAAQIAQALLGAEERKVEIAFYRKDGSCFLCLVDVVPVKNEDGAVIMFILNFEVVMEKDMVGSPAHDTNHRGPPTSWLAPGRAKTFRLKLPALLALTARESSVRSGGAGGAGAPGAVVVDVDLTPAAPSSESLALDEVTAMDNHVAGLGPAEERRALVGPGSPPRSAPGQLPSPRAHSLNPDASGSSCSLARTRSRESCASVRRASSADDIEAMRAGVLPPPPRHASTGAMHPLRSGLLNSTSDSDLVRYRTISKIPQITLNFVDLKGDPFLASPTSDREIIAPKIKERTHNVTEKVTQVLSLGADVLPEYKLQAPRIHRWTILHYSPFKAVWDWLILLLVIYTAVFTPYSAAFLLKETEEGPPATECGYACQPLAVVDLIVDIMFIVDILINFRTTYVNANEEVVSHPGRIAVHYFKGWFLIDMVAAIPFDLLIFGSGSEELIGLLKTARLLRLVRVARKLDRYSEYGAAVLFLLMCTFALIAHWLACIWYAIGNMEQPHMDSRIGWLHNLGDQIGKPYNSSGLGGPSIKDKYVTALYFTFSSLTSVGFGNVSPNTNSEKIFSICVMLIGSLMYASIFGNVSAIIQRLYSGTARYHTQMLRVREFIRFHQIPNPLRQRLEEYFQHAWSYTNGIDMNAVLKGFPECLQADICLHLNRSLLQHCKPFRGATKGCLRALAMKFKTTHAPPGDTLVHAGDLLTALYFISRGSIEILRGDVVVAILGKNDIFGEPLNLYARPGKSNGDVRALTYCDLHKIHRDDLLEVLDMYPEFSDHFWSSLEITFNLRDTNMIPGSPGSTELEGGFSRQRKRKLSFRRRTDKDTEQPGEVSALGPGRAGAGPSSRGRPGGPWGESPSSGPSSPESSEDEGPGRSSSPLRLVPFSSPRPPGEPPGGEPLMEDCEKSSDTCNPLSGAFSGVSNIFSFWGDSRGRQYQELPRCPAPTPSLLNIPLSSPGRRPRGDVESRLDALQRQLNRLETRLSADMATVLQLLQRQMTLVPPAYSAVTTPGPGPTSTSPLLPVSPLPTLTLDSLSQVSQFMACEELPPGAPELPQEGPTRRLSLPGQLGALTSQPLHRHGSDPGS
Experimental: The base solution for the rubidium efflux studies was 144 mM NaCl, 20 mM HEPES-NaOH (pH 7.4), 2 mM CaCl2, 1 mM MgCl2, and 11 mM glucose. To prepare the rubidium loading buffer 5.4 mM RbCl was added. The wash buffer was supplemented with 5.4 mM KCl. The depolarization buffer was prepared by adding 40 mM KCl to the wash buffer. Drugs were added as 4× stocks containing 10% DMSO with a resulting final DMSO concentration of 2.5%.
hERG-CHO cells were plated into 96-well flat-bottom dishes and returned to the incubator for 24 hours. On the day of study, culture medium was removed and replaced by a HEPES-buffered saline solution containing 5.4 mM RbCl. Cells were returned to the tissue culture incubator for 3 hours to permit rubidium loading. […] Plates were then washed 3× with HEPES buffered saline containing 5.4 mM KCl and zero rubidium. After the 3rd wash cells were depolarized by the addition of 200 μl HEPES buffered saline containing 45.4 mM KCl. Cells were incubated in the depolarization solution for 5 minutes to permit efflux of rubidium. Supernatants were then collected and analyzed for rubidium content using automated flame atomic absorbance spectroscopy (ICR-8000, Aurora Biosciences). Percent inhibition was quantified based on a signal window defined by no block (vehicle) and full block with 10 μM dofetilide. All pipetting steps for the rubidium efflux screen were implemented using a pipetting robot capable of making simultaneous additions and removals from 96 wells (Quadra-96).

CYP3A4 = target: T4, CYP3A4 (Homo sapiens, UniProt P08684); experiment: CYP inhibition assay, human liver microsomes, CYP3A4; assay type: in vitro ADME
T4 construct: human liver microsomes (0.4 mg/ml); from tissue; host or cells: human liver microsomes
T4 sequence (P08684 whole entry): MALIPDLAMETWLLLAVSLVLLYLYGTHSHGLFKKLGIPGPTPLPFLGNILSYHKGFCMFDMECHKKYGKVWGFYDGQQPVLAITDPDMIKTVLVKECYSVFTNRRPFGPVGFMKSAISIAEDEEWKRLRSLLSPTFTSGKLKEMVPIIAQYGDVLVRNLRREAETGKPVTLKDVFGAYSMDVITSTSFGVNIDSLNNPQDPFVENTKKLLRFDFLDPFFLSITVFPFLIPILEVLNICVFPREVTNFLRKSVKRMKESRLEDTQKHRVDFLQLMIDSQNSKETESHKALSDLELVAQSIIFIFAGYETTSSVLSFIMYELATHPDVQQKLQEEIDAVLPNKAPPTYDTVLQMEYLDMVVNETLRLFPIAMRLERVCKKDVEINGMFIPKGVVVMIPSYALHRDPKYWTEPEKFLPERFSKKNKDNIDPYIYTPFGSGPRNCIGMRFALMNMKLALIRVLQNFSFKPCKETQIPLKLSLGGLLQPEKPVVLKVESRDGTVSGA

[1] = target: T5, soluble human BACE1 catalytic domain (Homo sapiens, UniProt P56817); experiment: BACE1 HTRF FRET assay; assay type: biochemical; conditions: calculated from IC50 by Cheng-Prusoff; QSY7-APPswe-Eu substrate, pH 5.0
T5 construct: purified human BACE1 catalytic domain
T5 sequence (P56817 75-416 limits assumed): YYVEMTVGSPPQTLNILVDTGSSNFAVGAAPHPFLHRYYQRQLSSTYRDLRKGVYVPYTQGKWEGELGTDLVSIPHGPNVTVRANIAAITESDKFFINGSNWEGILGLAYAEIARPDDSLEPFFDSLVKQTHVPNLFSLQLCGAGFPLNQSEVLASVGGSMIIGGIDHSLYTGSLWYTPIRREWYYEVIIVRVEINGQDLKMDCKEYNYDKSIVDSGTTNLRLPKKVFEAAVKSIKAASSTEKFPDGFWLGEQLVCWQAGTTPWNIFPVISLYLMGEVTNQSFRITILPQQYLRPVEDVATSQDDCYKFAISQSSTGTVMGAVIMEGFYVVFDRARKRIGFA

BACE1 = target: T6, BACE1 (Homo sapiens, UniProt P56817); experiment: BACE inhibitor whole cell IC50 determination using HEK293-APPswe/lon cells (Aβ40); assay type: cell-based; conditions: 4 hours, Aβ40 in media, read-out: BACE1 A[…]40 IC50
T6 construct: endogenous in cells; host or cells: HEK293 stably transfected with human APP cDNA (Swedish and London mutations)
T6 sequence (P56817 46-501): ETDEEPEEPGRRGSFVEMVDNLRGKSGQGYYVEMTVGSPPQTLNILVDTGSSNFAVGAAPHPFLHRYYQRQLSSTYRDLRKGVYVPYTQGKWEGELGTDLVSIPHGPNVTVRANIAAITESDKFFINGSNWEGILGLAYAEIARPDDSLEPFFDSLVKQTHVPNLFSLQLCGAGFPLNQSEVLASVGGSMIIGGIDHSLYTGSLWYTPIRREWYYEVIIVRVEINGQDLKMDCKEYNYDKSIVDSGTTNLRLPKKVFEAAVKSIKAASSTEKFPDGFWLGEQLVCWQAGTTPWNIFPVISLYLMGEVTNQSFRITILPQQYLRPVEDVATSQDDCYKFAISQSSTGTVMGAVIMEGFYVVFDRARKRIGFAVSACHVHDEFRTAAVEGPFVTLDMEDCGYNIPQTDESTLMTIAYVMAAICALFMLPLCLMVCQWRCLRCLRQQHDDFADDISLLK

human liver Cathepsin D = target: T7, human liver Cathepsin D (Homo sapiens, UniProt P07339); experiment: Human Cathepsin D FRET assay; assay type: biochemical; conditions: selectivity with respect to Cathepsin D versus BACE1
T7 construct: Purified (>95%) human liver Cathepsin D; purchased Athens Research & Technology 16-12-030104; host or cells: human liver (tissue-derived)
T7 sequence (P07339 169-412 limits assumed): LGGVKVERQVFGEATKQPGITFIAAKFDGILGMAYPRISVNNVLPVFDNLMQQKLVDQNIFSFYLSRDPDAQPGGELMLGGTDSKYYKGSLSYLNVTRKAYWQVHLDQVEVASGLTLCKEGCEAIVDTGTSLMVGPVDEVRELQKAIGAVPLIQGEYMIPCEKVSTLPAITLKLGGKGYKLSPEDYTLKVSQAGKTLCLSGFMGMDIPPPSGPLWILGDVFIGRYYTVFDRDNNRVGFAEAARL
T7 sequence (P07339 65-161 limits assumed): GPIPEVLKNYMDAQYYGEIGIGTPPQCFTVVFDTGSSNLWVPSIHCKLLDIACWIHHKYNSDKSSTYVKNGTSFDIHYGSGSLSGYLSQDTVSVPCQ

[2] = 30 min pre-incubation with NADPH, read-out: CYP 2C9 IC50 pre
[3] = co-incubation, tolbutamide substrate, read-out: CYP 2C9 IC50 co
[4] = 30 min pre-incubation with NADPH, read-out: CYP 2D6 IC50 pre
[5] = co-incubation, dextromethorphan substrate, read-out: CYP 2D6 IC50 co
[6] = 30 min pre-incubation with NADPH, read-out: CYP 3A4 IC50 pre
[7] = co-incubation, read-out: CYP 3A4 IC50 co

Row | Compound | IC50 (CYP2C9; [2]) [µM] | IC50 (CYP2C9; [3]) [µM] | IC50 (CYP2D6; [4]) [µM] | IC50 (CYP2D6; [5]) [µM] | IC50 (CYP3A4; [6]) [µM] | IC50 (CYP3A4; [7]) [µM] | Ki [1] [nM] | IC50 (BACE1) [nM] | CathD Selectivity (human liver Cathepsin D) | inhibition at 30 min, 1.5 uG/mL (hERG) [%] | inhibition at 30 min, 5 uG/mL (hERG) [%]
1 | [H]/N=C1\N[C@@]2(c3ccc(C#N)s3)CN(c3nc(C)c(F)c(OC)n3)C[C@H]2C(=O)N1C [Example 1] | > 30 | 23.4 | > 30 | > 30 |  |  |  |  |  | 1 | 10
2 | COc1nc(N2C[C@H]3C(=O)N(C)C(=N)N[C@@]3(c3ccc(Cl)s3)C2)nc(C)c1F [Example 2] | 22.8 | 20.3 | > 30 | > 30 |  |  |  |  |  | 4 | 22
3 | CCc1nc(N2C[C@H]3C(=O)N(C)C(=N)N[C@@]3(c3ccc(Cl)s3)C2)nc(OC)c1F [Example 4] | 5.5 | 7.9 | 19 | 22 | ~30 | > 30 |  |  |  | 17 | 49
4 | Cc1nc(N2C[C@H]3C(=O)N(C)C(=N)N[C@@]3(c3ccc(Cl)s3)C2)nc(C2CC2)c1F [Example 6] | 19 | 19 | 21 | > 30 | 12 | 16 | 49 |  |  |  | 
5 | Cc1nc(N2C[C@H]3C(=O)N(C)C(=N)N[C@@]3(c3ccc(C#N)s3)C2)nc(C2CC2)c1F [Example 9] |  |  |  |  |  |  | 49 | 315 |  |  | 
6 | CCCc1nc(N2C[C@H]3C(=O)N(C)C(=N)N[C@@]3(c3ccc(Cl)s3)C2)nc(OC)c1F [Example 10] | 11.3 | 7.9 | 8.2 | 6.1 | 11.9 | > 30 |  |  |  | 23 | 65
7 | COc1nc(N2C[C@H]3C(=O)N(C)C(=N)N[C@@]3(c3ccc(Cl)s3)C2)nc(C2CC2)c1F [Example 11] |  |  |  |  |  |  | 151 | 1320 |  | 26 | 72
8 | CCc1nc(N2C[C@H]3C(=O)N(C)C(=N)N[C@@]3(c3ccc(Cl)s3)C2)nc(C2CC2)c1Cl [Example 13] |  |  |  |  |  |  | 157 |  |  | 2 | 46
9 | Cc1nc(N2C[C@H]3C(=O)N(C)C(=N)N[C@@]3(c3ccc(Cl)s3)C2)nc(C)c1F [Example 14] | > 30 | > 30 | > 30 | > 30 | > 30 | > 30 | 47 |  |  | 14 | 6
10 | CCCc1nc(N2C[C@H]3C(=O)N(C)C(=N)N[C@@]3(c3ccc(Cl)s3)C2)nc(C)c1F [Example 15] |  |  |  |  |  |  | 8.8 | 147 | 20 | 35 | 40
11 | CCCc1nc(N2C[C@H]3C(=O)N(C)C(=N)N[C@@]3(c3ccc(C#N)s3)C2)nc(C)c1F [Example 16] |  |  |  |  |  |  | 19 | 135 | 16 | 44 | 28
12 | Cc1nc(N2C[C@H]3C(=O)N(C)C(=N)N[C@@]3(c3ccc(Cl)s3)C2)nc(C2CC2)c1Cl [Example 20] |  |  |  |  |  |  | 9.6 | 215 | 62 | -1 | 34

Second part, led by results:

Row | IC50 (CYP2C9; [2]) [µM] | IC50 (CYP2C9; [3]) [µM] | IC50 (CYP2D6; [4]) [µM] | IC50 (CYP2D6; [5]) [µM] | IC50 (CYP3A4; [6]) [µM] | IC50 (CYP3A4; [7]) [µM] | Ki [1] [nM] | IC50 (BACE1) [nM] | CathD Selectivity (human liver Cathepsin D) | Compound | inhibition at 30 min, 1.5 uG/mL (hERG) [%] | inhibition at 30 min, 5 uG/mL (hERG) [%]
13 | 4.2 | 7.3 | 12.9 | 13.5 | 23 | > 30 | 110 |  |  | CCOc1nc(N2C[C@H]3C(=O)N(C)C(=N)N[C@@]3(c3ccc(Cl)s3)C2)nc(CC)c1F [Example 5] | 10 | 22
14 | > 30 | > 30 | > 30 | > 30 | > 30 | > 30 | 24 | 285 |  | CCc1nc(N2C[C@H]3C(=O)N(C)C(=N)N[C@@]3(c3ccc(Cl)s3)C2)nc(C)c1F [Example 7] |  | 
15 | > 30 | > 30 | > 30 | > 30 | > 30 | > 30 | 31 | 210 | 82 | Cc1nc(N2C[C@H]3C(=O)N(C)C(=N)N[C@@]3(c3cc(C#N)cs3)C2)nc(C2CC2)c1F [Example 8] |  | 
16 |  |  |  |  |  |  | 30 | 561 |  | COc1nc(N2C[C@H]3C(=O)N(C)C(=N)N[C@@]3(c3ccc(Cl)s3)C2)nc(C2CC2)c1Cl [Example 12] | -7 | 34
17 | > 30 | > 30 | > 30 | > 30 | ~30 | > 30 | 52 | 141 | 47 | Cc1nc(N2C[C@H]3C(=O)N(C)C(=N)N[C@@]3(c3ccc(C#N)s3)C2)nc(C)c1F [Example 19] | -5 | 3
